How the values were obtained:
hiPSCs = assay: Pluripotency marker expression by flow cytometry and qPCR; format: cell-based, human; settings: for factor contribution (FC), NANOG optimization: MODDE optimizer for NANOG
Description: 3 ml sample was taken from each bioreactor on day 4 of the culture for qPCR testing. RNA samples were dissolved in Trizol and extracted. Quantification of RNA was performed on epoch reader. A high-Capacity cDNA RT Kit was used for reverse transcription of RNA samples of each bioreactor. 3 replicate samples of cDNA were obtained from 3 replicate samples of each bioreactor. Data collection was performed using QuantStudio for qPCR testing. The runs were performed per the manufacturer's protocol and recommendations. The primers used were NANOG, SOX2, POU5F1 and GAPDH. The data set obtained was then exported to Excel and normalized against corresponding housekeeping gene GAPDH. Final expression levels were expressed as 1/(2^Crt)×1000 and inputted into the MODDE software. A 3 ml sample was taken from each bioreactor on day 4 of the culture for flow testing. The aggregates were dissociated with Accutase for 10 minutes into single cells. Cells were resuspended in PBS and divided into samples for intracellular staining and cells for extracellular staining. Sample for intracellular staining were fixed with a live/dead stain FVS 780, then permeabilized and stained for OCT4 and SOX2.
Pluripotency data was assessed at the end of the experiment through Immunohistochemistry (IHC), flow cytometry and qPCR testing. The experiment was divided into two batches of experiments to be run at different times. Three replicated center point experiments with all five additives at mid-concentrations were used and split between the batches for normalization and model evaluation purposes. The optimization criteria were based on multiple attributes related to aggregate stability, cell growth and pluripotency. Mathematical models were generated and tuned for maximal predictive power and fit. The model responses for each parameter were statistically evaluated for model reproducibility, model validity, fit (R2) and prediction precision (Q2). […] The model had model validity above 0.25 indicating the absence of problems related to outliers and transformation issues.
Attaining maximal growth conditions of iPSC is not meaningful unless the iPSC state characteristics is also maintained. […] At the end of the experiment, using flow cytometry we tested for SSEA4, OCT4, SOX2 and TRA-1-60 while a complimentary q-PCR assessment was conducted for NANOG, OCT4 and SOX2. The results of these experiments were used to model the effect of the additives on pluripotency. […] This is because that until proven that individual factors are not in regulatory conflict (i.e., SOX2, NANOG, or OCT4 being subject to differential control), single-response factor optimization is prudent. As we found, these factors are indeed subject to differential control.

hiPSC aggregates = assay: Aggregate size, deviation and Aggregate % Error in bioreactor; format: cell-based, human; settings: DS and pluronic F68 at low concentrations; heparin sodium salt and PEG present; FIG. 4B
Description: Samples from the bioreactor were taken after slightly mixing using a pipette to avoid sampling bias and gradient formation after settling. 3 ml total was sampled daily for 3 samples of 1 ml for cell count. The cells were first dissociated using Accutase and incubated for 10minutes. Cells were then quenched with E8 then centrifuged at 400×g for 6 minutes. The pellet was resuspended in the same volume of PBS. Samples were then analyzed for total cell count using Attune flow. 3 replicate counts were collected for each bioreactor for each day of culture. 2 samples were collected for aggregate imaging of 500 ul and put on a 24 well plate. EVOS 7000 was used for bright field images of the aggregates. […] A minimum of 30 aggregates were measured for each bioreactor every day of the culture. […] The cell counts were also analyzed for doubling time using GraphPad Prism. […] Using the aggregate size generated from day 1 from all bioreactors and their corresponding cell growth rate, a predicted aggregate size was calculated for day 3 and compared to the actual size measured. The predicted aggregate size was calculated from theoretical aggregate volume. […]
From the cell number, the predicted aggregate volume (V3P) was calculated again from the first equation. […] This is calculated by subtracting the predicted from the actual average size measured and divided by the actual value: […]

[1] = coefficients of flow and qPCR markers, FIG. 3B

Substance | factor contribution (FC), NANOG optimization (hiPSCs) | impact on NANOG (coefficient) (hiPSCs; [1]) | impact on OCT4 (coefficient) (hiPSCs; [1]) | contribution factor, optimizer for target aggregate % error of 0 (hiPSC aggregates)
dextran sulfate [DS] | 48.04 | positive | negative | 28.05
Heparin sodium salt [reference compound] | 21.12 |  |  | 21.71

Reference: patent publication US20250011726A1, “METHODS AND COMPOSITIONS FOR MAINTAINING AGGREGATE STABILITY AND PLURIPOTENCY OF STEM CELLS” (Trailhead Biosystems Inc., priority 2023, published 2025)
